Common to all, as to assay type: biochemical
Experiment [1] concerns the target T1, Recombinant human TRKC (Homo sapiens, UniProt Q16288).
T1 construct: purchased Carna Biosciences
Put plainly: In vitro activity test on TRKC kinase (HTRF KinEASE TK). Conditions: 25.64 μM ATP, 40 min. Here is the method: (§1) Biological Test Example 1 In Vitro Activity Test on TRKA, TRKB, TRKC Kinase
(§2) Recombinant human TRKA, TRKB, TRKC proteins were purchased from Carna Biosciences. HTRF KinEASE TK kit was purchased from Cisbio Bioassays. Synergy Neo 2 of Biotek was used to read the plate.
(§3) The tested compound was subjected to 3-fold serial dilution to reach a final concentration of 1 μM to 0.05 nM (10 concentrations), duplicates for each concentration; and the DMSO concentration in the detection reaction was 1%.
0.037 ng/μL TRKC protein kinase, 1 μM TK Substrate-biotin polypeptide substrate, 25.64 μM ATP, 1× enzymatic buffer, 5 mM MgCl2, and 1 mM DTT. The detection plate was White Proxiplate 384-Plus plate (PerkinElmer), and incubated at room temperature for 40 min, and the assay volume was 10 μL.
(§4) 10 μL of detection reagent was added to the plate (containing 0.125 μM SA-XL665 and 5 μL 1×TK-Antibody) and incubated overnight at room temperature, and Synergy Neo 2 was used to read the plate.
(§5) The 665/620 Ratio was converted according to the following formula into inhibition rate (%)=(1−Ratiotest/Ratiomax)×100%. Ratiomax was a positive control without tested compound, and Ratiotest was the value of each concentration of different compounds. IC50 (nM) data was obtained by 4 parameter curve fitting (see Table 1).
(In general: In TR-FRET formats the signal depends on donor and acceptor labels being close together.)

Experiment [2] has as its target T2, Recombinant human TRKA (Homo sapiens, UniProt P04629).
T2 construct: purchased Carna Biosciences
Put plainly: In vitro activity test on TRKA kinase (HTRF KinEASE TK). The following applies: 14.68 μM ATP, 40 min. Here is the method: as §1, §2, §3
0.2 ng/μL TRKA protein kinase, 1 μM TK Substrate-biotin polypeptide substrate, 14.68 μM ATP, 1× enzymatic buffer, 5 mM MgCl2, and 1 mM DTT. The detection plate was White Proxiplate384-Plus plate (PerkinElmer), and incubated at room temperature for 40 min, and the assay volume was 10 μL.
as §4, §5

In experiment [3] the target is T3, Recombinant human TRKB (Homo sapiens, UniProt Q16620).
T3 construct: purchased Carna Biosciences
The experiment can be described thus: In vitro activity test on TRKB kinase (HTRF KinEASE TK). The following applies: 4.77 μM ATP, 50 min. Here is the method:
as §1, §2, §3
0.037 ng/μL TRKB protein kinase, 1 μM TK Substrate-biotin polypeptide substrate, 4.77 μM ATP, 1× enzymatic buffer, 5 mM MgCl2, and 1 mM DTT. The detection plate was White Proxiplate 384-Plus plate (PerkinElmer), and incubated at room temperature for 50 min, and the assay volume was 10 μL.
as §4, §5

Experiment [4] deals with T4, recombinant human TRKA (G595R) (Homo sapiens, UniProt P04629, G595R).
T4 construct: purchased SignalChem
Put plainly: In vitro activity test on mutant TRKA (G595R) (HTRF KinEASE TK). The following applies: 4.5 μM ATP, 30 min. As to the method: Biological Test Example 2 In Vitro Activity Test on Mutant TRKA (G595R), TRKA (G667C) and TRKC (G623R)
The recombinant human TRKA (G595R), TRKA (G667C) and TRKC (G623R) proteins were purchased from SignalChem. HTRF kinEASE TK kit was purchased from CisbioBioassays. Synergy Neo 2 of Biotek was used to read the plate.
The tested compound was subjected to 4-fold serial dilution to reach a final concentration of 1 μM to 0.004 nM (10 concentrates), duplicates for each concentration; and 1% DMSO was present in the detection reaction.
0.12 ng/μL TRKA (G595R) kinase, 1 μM TK Substrate-biotin polypeptide substrate, 4.5 μM ATP, 1× enzymatic buffer, 5 mM MgCl2, and 1 mm DTT. The detection plate was White Proxiplate384-Plus plate (PerkinElmer), and incubated at room temperature for 30 min, and the assay volume was 10 μL.
as §4
The value of 665/620 Ratio minus the value of negative control wells without enzyme, then the obtained value was converted according to the following formula into inhibition rate (%)=(1−Ratiotest/Ratiomax)×100%. Ratiomax was a positive control without tested compound, and Ratiotest was the value of each concentration of different compounds. IC50 (nM) data was obtained by 4 parameter curve fitting (see Table 1).

pIC50: −log10 of the molar value. Some results are limits rather than exact numbers.

By pIC50 is commonly meant the IC50 on a negative log10 scale, so that one unit is a factor of ten.

T4 sequence (P04629 33-796 G595R): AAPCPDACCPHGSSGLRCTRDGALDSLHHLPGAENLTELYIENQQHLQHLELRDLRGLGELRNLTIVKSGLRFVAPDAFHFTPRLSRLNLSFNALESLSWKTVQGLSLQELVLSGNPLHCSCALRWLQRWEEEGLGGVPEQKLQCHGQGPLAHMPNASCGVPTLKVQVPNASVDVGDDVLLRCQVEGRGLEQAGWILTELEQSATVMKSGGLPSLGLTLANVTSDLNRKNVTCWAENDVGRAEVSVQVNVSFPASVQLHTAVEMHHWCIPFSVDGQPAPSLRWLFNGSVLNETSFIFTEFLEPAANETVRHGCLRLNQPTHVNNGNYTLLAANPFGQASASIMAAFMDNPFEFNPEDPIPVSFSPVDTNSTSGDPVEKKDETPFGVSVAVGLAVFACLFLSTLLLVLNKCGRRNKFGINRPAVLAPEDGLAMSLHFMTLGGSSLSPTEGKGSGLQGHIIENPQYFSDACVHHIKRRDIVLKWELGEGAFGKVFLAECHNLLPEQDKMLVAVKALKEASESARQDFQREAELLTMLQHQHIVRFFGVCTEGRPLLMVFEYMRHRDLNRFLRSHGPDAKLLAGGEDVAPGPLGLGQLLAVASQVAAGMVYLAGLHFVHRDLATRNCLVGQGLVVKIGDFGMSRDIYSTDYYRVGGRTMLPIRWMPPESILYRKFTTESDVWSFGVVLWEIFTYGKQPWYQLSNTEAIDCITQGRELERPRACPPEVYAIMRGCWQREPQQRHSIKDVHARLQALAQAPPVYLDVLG
T3 sequence (Q16620 32-822): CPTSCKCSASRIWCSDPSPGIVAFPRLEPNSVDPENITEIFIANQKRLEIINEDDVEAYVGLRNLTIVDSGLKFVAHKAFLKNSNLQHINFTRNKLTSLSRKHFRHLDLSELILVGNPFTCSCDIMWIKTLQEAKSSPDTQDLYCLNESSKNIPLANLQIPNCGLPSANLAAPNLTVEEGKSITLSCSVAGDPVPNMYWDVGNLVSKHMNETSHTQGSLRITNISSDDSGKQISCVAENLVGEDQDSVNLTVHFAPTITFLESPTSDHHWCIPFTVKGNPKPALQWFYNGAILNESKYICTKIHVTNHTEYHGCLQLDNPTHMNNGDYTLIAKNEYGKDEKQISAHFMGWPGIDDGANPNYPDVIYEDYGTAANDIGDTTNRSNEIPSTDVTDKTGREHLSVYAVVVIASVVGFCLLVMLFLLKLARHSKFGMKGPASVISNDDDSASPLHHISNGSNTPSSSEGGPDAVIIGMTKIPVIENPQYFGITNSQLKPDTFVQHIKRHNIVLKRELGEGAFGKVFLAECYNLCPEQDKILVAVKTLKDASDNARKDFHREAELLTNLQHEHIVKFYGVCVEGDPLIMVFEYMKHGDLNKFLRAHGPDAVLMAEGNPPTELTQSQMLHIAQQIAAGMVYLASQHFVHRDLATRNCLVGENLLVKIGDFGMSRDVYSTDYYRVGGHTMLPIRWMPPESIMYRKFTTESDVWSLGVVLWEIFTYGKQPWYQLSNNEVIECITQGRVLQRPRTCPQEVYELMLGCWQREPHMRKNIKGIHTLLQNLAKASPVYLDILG
T1 sequence (Q16288 32-839): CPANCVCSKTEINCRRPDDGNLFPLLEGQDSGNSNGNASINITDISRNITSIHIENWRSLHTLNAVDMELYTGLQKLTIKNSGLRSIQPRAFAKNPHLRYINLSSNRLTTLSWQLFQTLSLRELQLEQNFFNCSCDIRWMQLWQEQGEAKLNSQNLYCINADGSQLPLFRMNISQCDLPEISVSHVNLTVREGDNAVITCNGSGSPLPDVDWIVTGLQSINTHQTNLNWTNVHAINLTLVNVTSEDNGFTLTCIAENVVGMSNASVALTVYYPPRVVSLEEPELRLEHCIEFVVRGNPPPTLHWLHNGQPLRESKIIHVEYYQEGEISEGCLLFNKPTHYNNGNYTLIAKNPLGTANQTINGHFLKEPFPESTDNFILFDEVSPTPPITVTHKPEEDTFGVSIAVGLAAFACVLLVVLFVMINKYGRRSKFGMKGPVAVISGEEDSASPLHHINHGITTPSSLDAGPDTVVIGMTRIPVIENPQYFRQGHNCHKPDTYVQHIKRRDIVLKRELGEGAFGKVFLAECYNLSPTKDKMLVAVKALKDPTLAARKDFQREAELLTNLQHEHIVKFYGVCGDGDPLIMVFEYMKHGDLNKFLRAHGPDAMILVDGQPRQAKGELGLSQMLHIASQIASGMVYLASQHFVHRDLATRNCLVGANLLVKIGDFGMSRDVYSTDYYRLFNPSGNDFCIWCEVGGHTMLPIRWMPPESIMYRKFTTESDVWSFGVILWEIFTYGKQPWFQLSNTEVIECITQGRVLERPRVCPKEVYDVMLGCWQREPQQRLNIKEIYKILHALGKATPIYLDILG
T2 sequence (P04629 33-796): as the sequence (P04629 33-796 G595R) above, with R563G counted along it

For `O=C1CC(n2cc(-c3ccnc4ccc(N5C[C@@H](F)C[C@@H]5c5cc(F)ccc5F)nc34)cn2)CCN1` (stereo partly drawn) [Example 19, 4-(4-(6-((2R,4S)-2-(2,5-difluorophenyl)-4-fluoropyrrolidin-1-yl)-1,5-naphthyridin-4-yl)-1H-pyrazol-1-yl)piperidin-2-one], the pIC50 in experiment [1] was more than 6.30; in experiment [2], more than 8.00; in experiment [3], more than 6.30.
Turning to `Fc1ccc(F)c([C@H]2C[C@H](F)CN2c2ccc3ncc(Cl)c(-c4cnc(N5CCNCC5)s4)c3n2)c1` [Example 60, 5-(3-Chloro-6-((2R,4S)-2-(2,5-difluorophenyl)-4-fluoropyrrolidin-1-yl)-1,5-naphthyridin-4-yl)-2-(piperazin-4-yl)thiazole], the values for the pIC50 in experiment [1], in experiment [2] and in experiment [3] were more than 9.00, more than 9.00 and more than 8.00, respectively.
Regarding `Fc1ccc(F)c([C@H]2C[C@H](F)CN2c2ccc3ncc(F)c(-c4cn(C5CCNCC5)nn4)c3n2)c1` [Example 83, 2-((2R,4S)-2-(2,5-difluorophenyl)-4-fluoropyrrolidin-1-yl)-7-fluoro-8-(1-(piperidin-4-yl)-1H-1,2,3-triazol-4-yl)-1,5-naphthyridine], the negative logarithm of the IC50 (pIC50) in experiment [1] was more than 8.00; in experiment [2], more than 9.00; in experiment [4], more than 8.00; in experiment [3] it was more than 8.00.
In the case of `O=c1n(-c2ncnc3ccc(N4C[C@@H](F)C[C@@H]4c4cc(F)ccc4F)nc23)ccn1C1CCNCC1` [Example 96, 1-(6-((2R,4S)-2-(2,5-difluorophenyl)-4-fluoropyrrolidin-1-yl)pyrido[3,2-d]pyrimidin-4-yl)-3-(piperidin-4-yl)-1,3-dihydro-2H-imidazol-2-one], the pIC50 was more than 8.00 in experiment [1], more than 9.00 in experiment [2], more than 8.00 in experiment [4] and more than 8.00 in experiment [3].
On to `Fc1ccc(F)c([C@H]2C[C@H](F)CN2c2ccc3ncc(Cl)c(-c4cnn([C@H]5CCCNC5)c4)c3n2)c1` [Example 55, 7-chloro-2-((2R,4S)-2-(2,5-difluorophenyl)-4-fluoropyrrolidin-1-yl)-8-(1-((S)-piperidin-3-yl)-1H-pyrazol-4-yl)-1,5-naphthyridine], for which the negative logarithm of the IC50 (pIC50) in experiment [1] is more than 6.30; in experiment [2], more than 8.00; in experiment [3], more than 6.30.
For the molecule `O[C@H]1CCN(c2ccnc3ccc(N4CCC[C@@H]4c4cc(F)ccc4F)nc23)C1` [Example 5, (S)-1-(6-((R)-2-(2,5-difluorophenyl)pyrrolidin-1-yl)-1,5-naphthyridin-4-yl)pyrrolidin-3-ol], the negative logarithm of the IC50 (pIC50) in experiment [1] is more than 6.82; in experiment [2], more than 7.00; in experiment [3], more than 6.30.
For `O[C@@H]1CCN(c2ccnc3ccc(N4CCC[C@@H]4c4cc(F)ccc4F)nc23)C1` [Example 3, (R)-1-(6-((R)-2-(2,5-difluorophenyl)pyrrolidin-1-yl)-1,5-naphthyridin-4-yl)pyrrolidin-3-ol], in that order: more than 6.30, more than 6.82 and more than 6.30.
`OC1CCN(c2nc(-c3c(F)cnc4ccc(N5C[C@@H](F)C[C@@H]5c5cc(F)ccc5F)nc34)no2)CC1` [Example 84, 1-(3-(6-((2R,4S)-2-(2,5-difluorophenyl)-4-fluoropyrrolidin-1-yl)-3-fluoro-1,5-naphthyridin-4-yl)-1,2,4-oxadiazol-5-yl)piperidin-4-ol]: the figures for the pIC50 in experiment [1], in experiment [2] and in experiment [3] were more than 9.00, more than 9.00 and more than 8.00, respectively.
As to `Fc1ccc(F)c([C@H]2C[C@H](F)CN2c2ccc3ncnc(-c4cnc(C5CCNCC5)nc4)c3n2)c1` [Example 91, 6-((2R,4S)-2-(2,5-Difluorophenyl)-4-fluoropyrrolidin-1-yl)-4-(2-(piperidin-4-yl)pyrimidin-5-yl)pyrido[3,2-d]pyrimidine], the pIC50 in experiment [1] was more than 9.00; in experiment [2], more than 9.00; in experiment [4], more than 8.00; in experiment [3] it was more than 9.00.
As to `O=C(O)[C@@H]1CCN(c2ncc(-c3ncnc4ccc(N5C[C@@H](F)C[C@@H]5c5cc(F)ccc5F)nc34)cn2)C1` [Example 88, (R)-1-(5-(6-((2R,4S)-2-(2,5-difluorophenyl)-4-fluoropyrrolidin-1-yl)pyrido[3,2-d]primidin-4-yl)pyrimidin-2-yl)pyrrolidin-3-carboxylic acid], the pIC50 in experiment [1], in experiment [2], in experiment [4] and in experiment [3] was more than 9.00 each time.
On to `OC1CCN(c2nc(-c3ncnc4ccc(N5C[C@@H](F)C[C@@H]5c5cc(F)ccc5F)nc34)no2)CC1` [Example 80, 1-(3-(6-((2R,4S)-2-(2,5-difluorophenyl)-4-fluoropyrrolidin-1-yl)pyrido[3,2-d]pyrimidin-4-yl)-1,2,4-oxadiazol-5-yl)piperidin-4-ol], for which the negative logarithm of the IC50 (pIC50) is more than 8.00 in experiment [1], more than 9.00 in experiment [2], more than 8.00 in experiment [4] and more than 8.00 in experiment [3].
With `Fc1ccc(F)c([C@H]2C[C@H](F)CN2c2ccc3ncnc(-c4noc(C5CCNCC5)n4)c3n2)c1` [Example 81, 3-(6-((2R,4S)-2-(2,5-difluorophenyl)-4-fluoropyrrolidin-1-yl)pyrido[3,2-d]pyrimidin-4-yl)-5-(piperidin-4-yl)-1,2,4-oxadiazole], the negative-log IC50 (pIC50) is more than 8.00 in experiment [1], more than 9.00 in experiment [2], more than 8.00 in experiment [4] and more than 8.00 in experiment [3].
For the molecule `COc1ccc(CNc2ccnc3ccc(N4CCC[C@@H]4c4cc(F)ccc4F)nc23)cc1` [Example 9, (R)-6-(2-(2,5-Difluorophenyl)pyrrolidin-1-yl)-N-(4-methoxybenzyl)-1,5-naphthyridin-4-amine], the pIC50 in experiment [1], in experiment [2] and in experiment [3] was more than 7.30 each time.
As to `O=C(Nc1c(Cl)cnc2ccc(N3C[C@@H](F)C[C@@H]3c3cc(F)ccc3F)nc12)C1CCNCC1` [Example 62, N-(3-Chloro-6-((2R,4S)-2-(2,5-difluorophenyl)-4-fluoropyrrolidin-1-yl)-1,5-naphthyridin-4-yl) piperidin-4-carboxamide], the negative logarithm of the IC50 (pIC50) in experiment [2] was more than 9.00.
As for `OCCNc1ccnc2ccc(N3CCC[C@@H]3c3cc(F)ccc3F)nc12` [Example 6, (R)-2-((6-(2-(2,5-Difluorophenyl)pyrrolidin-1-yl)-1,5-naphthyridin-4-yl)amino)ethan-1-ol], the negative-log IC50 (pIC50) in experiment [1] was more than 6.30; in experiment [2] it was more than 7.00; in experiment [3] it was more than 6.30.
With `O=C(Nc1ccnc2ccc(N3CCC[C@@H]3c3cc(F)ccc3F)nc12)c1cnc(N2CC[C@H](O)C2)nc1` [Example 8, N-(6-((R)-2-(2,5-difluorophenyl)pyrrolidin-1-yl)-1,5-naphthyridin-4-yl)-2-((S)-3-hydroxypyrrolidin-1-yl)pyrimidin-5-carboxamide], the pIC50 was more than 8.00 in experiment [1], more than 8.00 in experiment [2] and more than 9.00 in experiment [3].
For `CN(C)c1ccnc2ccc(N3CCC[C@@H]3c3cc(F)ccc3F)nc12` [Example 4, (R)-6-(2-(2,5-difluorophenyl)pyrrolidin-1-yl)-N,N-dimethyl-1,5-naphthyridin-4-amine], the pIC50 in experiment [1], in experiment [2] and in experiment [3] was more than 8.00 each time.
As to `Fc1ccc(F)c([C@H]2C[C@H](F)CN2c2ccc3nncc(-c4cnn(C5CCNCC5)c4)c3n2)c1` [Example 64, 6-((2R,4S)-2-(2,5-difluorophenyl)-4-fluoropyrrolidin-1-yl)-4-(1-(piperidin-4-yl)-1H-pyrazol-4-yl)pyrido[3,2-c]pyridazine], the pIC50 in experiment [2] is more than 9.00.

These data come from patent US20220017512A1 (SHANGHAI ENNOVABIO PHARMACEUTICALS CO., LTD., priority 2018, published 2022).
